Source: patent US8778964B2, “Hydroxy-substituted imidazo[1,2-a]-pyridinecarboxamides and their use” (Bayer Pharma Aktiengesellschaft, priority 2012, dated 2014)
Structures can show the parent of a compound that is named as a salt.

tested on: recombinant guanylate cyclase reporter cell line; test: Action on recombinant guanylate cyclase reporter cell line (MEC); type: cell-based; conditions: in some cases mean values obtained from individual determinations
Outline: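 Cell-based reporter assay with recombinant guanylate cyclase expressed in a reporter cell line, per a published method. Activity reported as minimal effective concentration (MEC), in some cases as the mean of individual determinations.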

In order of falling minimal effective concentration:
1. Cc1nc2c(OCc3c(Cl)cccc3Cl)cccn2c1C(=O)NC(CO)CO [Example 53, 8-[(2,6-dichlorobenzyl)oxy]-N-(1,3-dihydroxypropan-2-yl)-2-methylimidazo[1,2-a]-pyridine-3-carboxamide]  10 µM
2. Cc1nc2c(OCc3ccccc3Br)cccn2c1C(=O)NC(CO)CO [Example 54, 8-[(2-bromobenzyl)oxy]-N-(1,3-dihydroxypropan-2-yl)-2-methylimidazo[1,2-a]pyridine-3-carboxamide]  10 µM
3. Cc1cc(OCC2CC(F)(F)C2)c2nc(C)c(C(=O)NC(CCCC(F)(F)F)C(C)(C)O)n2c1 (racemic) [Example 176, rac-8-[(3,3-Difluorocyclobutyl)methoxy]-2,6-dimethyl-N-(7,7,7-trifluoro-2-hydroxy-2-methylheptan-3-yl)imidazo[1,2-a]pyridine-3-carboxamide]  3 µM
4. CCc1nc2c(OCC3CCC3)cccn2c1C(=O)N[C@@H](C)CO [Example 58, 8-(cyclobutylmethoxy)-2-ethyl-N-[(2S)-1-hydroxypropan-2-yl]imidazo[1,2-a]pyridine-3-carboxamide formic acid salt]  3 µM
5. Cc1nc2c(OCc3c(F)cccc3F)cccn2c1C(=O)NCC(O)COc1ccccc1 (stereo not drawn) [Example 137, 8-[(2,6-difluorobenzyl)oxy]-N-(2-hydroxy-3-phenoxypropyl)-2-methylimidazo[1,2-a]-pyridine-3-carboxamide]  3 µM
6. CCC(C)[C@H](CO)NC(=O)c1c(C)nc2c(OCC3CCCCC3)cccn12 (stereo partly drawn) [Example 96, 8-(cyclohexylmethoxy)-N-[(2R)-1-hydroxy-3-methylpentan-2-yl]-2-methylimidazo[1,2-a]pyridine-3-carboxamide]  3 µM
7. Cc1nc2c(OCC3CCC3)cccn2c1C(=O)NCCOCCO [Example 98, 8-(cyclobutylmethoxy)-N-[2-(2-hydroxyethoxy)ethyl]-2-methylimidazo[1,2-a]pyridine-3-carboxamide]  3 µM
8. CCCC[C@H](CO)NC(=O)c1c(C)nc2c(OCc3cccc(C(F)(F)F)c3F)cccn12 [Example 14, 8-{[2-fluoro-3-(trifluoromethyl)benzyl]oxy}-N-[(2R)-1-hydroxyhexan-2-yl]-2-methylimidazo[1,2-a]-pyridine-3-carboxamide]  3 µM
9. CCCCC(NC(=O)c1c(C)nc2c(OCCC(C)C)cc(C)cn12)C(C)(C)O (stereo not drawn) [Example 167, ent-N-(2-Hydroxy-2-methylheptan-3-yl)-2,6-dimethyl-8-(3-methylbutoxy)imidazo[1,2-a]pyridine-3-carboxamide]  2 µM
10. Cc1nc2c(OCC3CCC3)cccn2c1C(=O)NCCC1(O)CCCC1 [Example 97, 8-(cyclobutylmethoxy)-N-[2-(1-hydroxycyclopentyl)ethyl]-2-methylimidazo[1,2-a]pyridine-3-carboxamide]  1 µM
11. CCCc1nc2c(OCC3CCCCC3)cccn2c1C(=O)N[C@@H](C)CO [Example 57, 8-(cyclohexylmethoxy)-N-[(2S)-1-hydroxypropan-2-yl]-2-propylimidazo[1,2-a]-pyridine-3-carboxamide]  1 µM
12. Cc1nc2c(OCc3c(F)cccc3F)cccn2c1C(=O)NC(CO)COCC(C)C (racemic) [Example 163, rac-8-[(2,6-Difluorobenzyl)oxy]-N-(1-hydroxy-3-isobutoxypropan-2-yl)-2-methylimidazo[1,2-a]-pyridine-3-carboxamide]  1 µM
13. CCCC[C@H](CO)NC(=O)c1c(C)nc2c(OCc3ccccc3)cccn12 [Example 16, 8-(Benzyloxy)-N-[(2R)-1-hydroxyhexan-2-yl]-2-methylimidazo[1,2-a]pyridine-3-carboxamide]  1 µM
14. CC[C@H](C)[C@@H](CO)NC(=O)c1c(C)nc2c(OCC3CCCCC3)cccn12 [Example 91, 8-(cyclohexylmethoxy)-N-[(2S,3S)-1-hydroxy-3-methylpentan-2-yl]-2-methylimidazo[1,2-a]pyridine-3-carboxamide]  1 µM
15. C[C@@H](CO)NC(=O)c1c(C(F)(F)F)nc2c(OCC3CCCCC3)cccn12 [Example 56, 8-(cyclohexylmethoxy)-N-[(2S)-1-hydroxypropan-2-yl]-2-(trifluoromethyl)imidazo[1,2-a]pyridine-3-carboxamide]  1 µM
16. Cc1nc2c(OCc3c(F)cccc3F)cccn2c1C(=O)N[C@@H](CO)C(C)(C)O [Example 165, 8-[(2,6-Difluorobenzyl)oxy]-N-[(2S)-1,3-dihydroxy-3-methylbutan-2-yl]-2-methylimidazo[1,2-a]-pyridine-3-carboxamide]  1 µM
17. Cc1nc2c(OCc3c(F)cccc3F)cccn2c1C(=O)NC(C)C(O)C(F)(F)F (single isomer, unassigned) [Example 146, 8-[(2,6-Difluorobenzyl)oxy]-2-methyl-N-(4,4,4-trifluoro-3-hydroxybutan-2-yl)imidazo[1,2-a]-pyridine-3-carboxamide]  1.0 µM
18. Cc1nc2c(OCc3c(F)cccc3F)cccn2c1C(=O)NC1(CO)CCC1 [Example 125, 8-[(2,6-Difluorobenzyl)oxy]-N-[1-(hydroxymethyl)cyclobutyl]-2-methylimidazo[1,2-a]pyridine-3-carboxamide]  0.3 µM
19. CCC(O)CNC(=O)c1c(C)nc2c(OCc3c(F)cccc3F)cccn12 (racemic) [Example 30, (rac)-8-[(2,6-difluorobenzyl)oxy]-N-(2-hydroxybutyl)-2-methylimidazo[1,2-a]pyridine-3-carboxamide]  0.3 µM
20. Cc1nc2c(OCC3CCCCC3)cccn2c1C(=O)NC[C@@H](O)CO [Example 80, 8-(cyclohexylmethoxy)-N-[(2R)-2,3-dihydroxypropyl]-2-methylimidazo[1,2-a]pyridine-3-carboxamide]  0.3 µM
21. Cc1nc2c(OCc3cccc(Cl)c3Cl)cccn2c1C(=O)NCCC1(O)CCCC1 [Example 47, 8-[(2,3-dichlorobenzyl)oxy]-N-[2-(1-hydroxycyclopentyl)ethyl]-2-methylimidazo[1,2-a]-pyridine-3-carboxamide]  0.3 µM
22. Cc1nc2c(OCC3CCCCC3)cccn2c1C(=O)NCCCCO [Example 74, 8-(cyclohexylmethoxy)-N-(4-hydroxybutyl)-2-methylimidazo[1,2-a]pyridine-3-carboxamide]  0.2 µM
23. CCCC[C@H](CO)NC(=O)c1c(C)nc2c(OCc3ccccc3F)cccn12 [Example 5, 8-[(2-fluorobenzyl)-oxy]-N-[(2R)-1-hydroxyhexan-2-yl]-2-methylimidazo[1,2-a]pyridine-3-carboxamide]  0.1 µM
24. CCCC[C@H](CO)NC(=O)c1c(C)nc2c(OCc3ccccc3Cl)cccn12 [Example 4, 8-[(2-chlorobenzyl)oxy]-N-[(2R)-1-hydroxyhexan-2-yl]-2-methylimidazo[1,2-a]pyridine-3-carboxamide]  0.1 µM
25. C#Cc1cc(OCc2c(F)cccc2F)c2nc(C)c(C(=O)N[C@@H](CO)CCCC)n2c1 [Example 126, 8-[(2,6-Difluorobenzyl)oxy]-6-ethynyl-N-[(2R)-1-hydroxyhexan-2-yl]-2-methylimidazo[1,2-a]-pyridine-3-carboxamide]  0.1 µM
26. CCCC[C@@H](NC(=O)c1c(C)nc2c(OCc3c(F)cccc3F)cccn12)C(C)(C)O [Example 147, 8-[(2,6-Difluorobenzyl)oxy]-N-[(3R)-2-hydroxy-2-methylheptan-3-yl]-2-methylimidazo[1,2-a]-pyridine-3-carboxamide]  0.1 µM
27. Cc1nc2c(OCc3c(F)cccc3F)cccn2c1C(=O)NC(CO)CCC(O)C(F)(F)F (single isomer, unassigned) [Example 138, 8-[(2,6-Difluorobenzyl)oxy]-2-methyl-N-(6,6,6-trifluoro-1,5-dihydroxyhexan-2-yl)imidazo[1,2-a]-pyridine-3-carboxamide]  0.1 µM
28. CCCC[C@H](CO)NC(=O)c1c(C)nc2c(OCc3c(F)cccc3F)cc(C#N)cn12 [Example 157, 6-Cyano-8-[(2,6-difluorobenzyl)oxy]-N-[(2R)-1-hydroxyhexan-2-yl]-2-methylimidazo[1,2-a]-pyridine-3-carboxamide]  0.065 µM
29. CCCC[C@H](CO)NC(=O)c1c(C)nc2c(OCc3c(F)cccc3F)cccn12 [Example 1, 8-[(2,6-Difluorobenzyl)oxy]-N-[(2R)-1-hydroxyhexan-2-yl]-2-methylimidazo[1,2-a]pyridine-3-carboxamide]  0.05 µM
30. CCCC[C@@H](NC(=O)c1c(C)nc2c(OCc3c(F)cccc3F)cccn12)C(C)O (stereo partly drawn) [Example 139, 8-[(2,6-Difluorobenzyl)oxy]-N-[(3R)-2-hydroxyheptan-3-yl]-2-methylimidazo[1,2-a]pyridine-3-carboxamide]  0.03 µM
31. Cc1nc2c(OCc3c(F)cccc3F)cccn2c1C(=O)NC(CC(F)(F)F)C(C)(C)O (racemic) [Example 148, rac-8-[(2,6-Difluorobenzyl)oxy]-2-methyl-N-(1,1,1-trifluoro-4-hydroxy-4-methylpentan-3-yl)-imidazo[1,2-a]pyridine-3-carboxamide]  0.03 µM
32. [2H]C([2H])(Oc1cccn2c(C(=O)N[C@@H](CO)CCCC)c(C)nc12)c1c(F)cccc1F [Example 115, 8-{[(2,6-difluorophenyl)(^2H2)methyl]oxy}-N-[(2R)-1-hydroxyhexan-2-yl]-2-methylimidazo[1,2-a]pyridine-3-carboxamide]  0.01 µM

same assay, conditions: in some cases mean values obtained from individual determinations, trifluoroacetate

For `Cc1nc2c(OCc3c(F)cccc3F)cccn2c1C(=O)NC(CO)CCCC(F)(F)F` (racemic) [Example 102, rac-8-[(2,6-difluorobenzyl)oxy]-2-methyl-N-(6,6,6-trifluoro-1-hydroxyhexan-2-yl)-imidazo[1,2-a]pyridine-3-carboxamide trifluoroacetate], the minimal effective concentration was 0.1 µM.
